One assay has as its target T1, HLA-DRB1*01:01 (Homo sapiens, UniProt P01903+P01911, A100R/D57E/F55L/F60I/F76Y/I96L/L162R/M171V/P40L/Q125E/R42F/V115G/Y59C).
T1 construct: EBV transformed homozygous cell lines were used as sources of MHC molecules; endogenous in cells; host or cells: EBV transformed homozygous cell lines
Kind of assay: HLA class II peptide binding, inhibition of radiolabeled peptide binding to purified MHC.

The next assay concerns the target T2, HLA-DRB1*04:01 (Homo sapiens, UniProt P01903+P01911, A100K/A169T/F76Y/I96L/K127E/L162R/M171V/N62H/P40V/Q125Y/R42H/S133A/S149N/S66Y/V115G/V209L/W38E).
T2 construct: EBV transformed homozygous cell lines were used as sources of MHC molecules; endogenous in cells; host or cells: EBV transformed homozygous cell lines
Described as above.

[1] abbreviates: citrullinated 15-mer peptide (X = citrulline), purified HLA-DRB1*01:01, read-out: DRB1*01:01 binding capacity, Cit peptide (IC50 nM).
The mark [2] stands for this setting: citrullinated 15-mer peptide (X = citrulline), purified HLA-DRB1*04:01, read-out: DRB1*04:01 binding capacity, Cit peptide (IC50 nM).
Where [3] appears, read: citrullinated 15-mer (X), purified MHC, inhibition of radiolabeled peptide binding, dash = IC50 >40,000 nM, read-out: DRB1*01:01 binding capacity, Cit peptide (IC50 nM).
The mark [4] stands for this setting: citrullinated 15-mer (X), purified MHC, inhibition of radiolabeled peptide binding, dash = IC50 >40,000 nM, read-out: DRB1*04:01 binding capacity, Cit peptide (IC50 nM).
The mark [5] stands for this setting: ratio of WT IC50 to Cit IC50, >1 = citrullination increases binding.

Read-outs that look alike come from different tables or passages of the source. Square brackets hold non-standard residues; d marks the D form. Ends that are not written are not given here. Peptide text beside a SMILES is read from it. Cit = NC(=O)NCCC[C@H](N)C(=O)O

By IC50 is commonly meant the point on the concentration scale where inhibition reaches its midpoint. `CC[C@H](C)[C@H](NC(=O)[C@H](CC(C)C)NC(=O)[C@H](CC(C)C)NC(=O)[C@@H](NC(=O)[C@H](CCCNC(N)=O)NC(=O)[C@H](CCCCN)NC(=O)[C@H](CO)NC(=O)[C@H](Cc1c[nH]cn1)NC(=O)[C@@H](N)[C@@H](C)O)[C@@H](C)O)C(=O)N[C@@H](CCCCN)C(=O)N[C@H](C(=O)N[C@H](C(=O)N[C@@H](CCC(=O)O)C(=O)N[C@H](C(=O)N[C@@H](CCCNC(=N)N)C(=O)O)[C@@H](C)O)C(C)C)[C@@H](C)O` [THSKXTLLIKTVETR] (H-THSK[Cit]TLLIKTVETR-OH): the IC50 on HLA-DRB1*01:01 (setting [1]) is 176 nM; on HLA-DRB1*04:01 (setting [2]), 6430 nM.

Regarding SAVRLRSSVPGVRLL [Vimentin 66 WT], the 50% inhibitory concentration (IC50) on HLA-DRB1*01:01 (read-out: DRB1*01:01 binding capacity, WT peptide (IC50 nM)) was 7.9 nM; on HLA-DRB1*04:01 (read-out: DRB1*04:01 binding capacity, WT peptide (IC50 nM)), 5060 nM.

With `CC(C)C[C@H](NC(=O)[C@H](CC(C)C)NC(=O)[C@H](CCCNC(=N)N)NC(=O)[C@@H](NC(=O)CNC(=O)[C@@H]1CCCN1C(=O)[C@@H](NC(=O)[C@H](CO)NC(=O)[C@H](CO)NC(=O)[C@@H](N)CCCNC(N)=O)C(C)C)C(C)C)C(=O)N[C@@H](CCC(N)=O)C(=O)N[C@@H](CC(=O)O)C(=O)N[C@@H](CO)C(=O)N[C@H](C(=O)N[C@@H](CC(=O)O)C(=O)O)C(C)C` [XSSVPGVRLLQDSVD] (H-[Cit]SSVPGVRLLQDSVD-OH), the IC50 on HLA-DRB1*01:01 (setting [3]) was 533 nM; on HLA-DRB1*04:01 (setting [4]), 9620 nM.

With `CC[C@H](C)[C@H](NC(=O)[C@H](CCCNC(=N)N)NC(=O)[C@H](CO)NC(=O)[C@H](CCC(=O)O)NC(=O)[C@H](CCC(=O)O)NC(=O)CNC(=O)[C@H](CCC(=O)O)NC(=O)[C@H](CC(C)C)NC(=O)[C@H](CC(C)C)NC(=O)[C@H](CCCCN)NC(=O)[C@@H](N)CCCNC(=N)N)C(=O)N[C@@H](CO)C(=O)N[C@@H](CC(C)C)C(=O)N1CCC[C@H]1C(=O)N[C@@H](CC(C)C)C(=O)O` [Vimentin 401 WT], the IC50 at HLA-DRB1*01:01 (wild-type (unmodified Arg) 15-mer peptide, purified HLA-DRB1*01:01, read-out: DRB1*01:01 binding capacity, WT peptide (IC50 nM)) turned out to be 1920 nM; at HLA-DRB1*04:01 (wild-type (unmodified Arg) 15-mer peptide, purified HLA-DRB1*04:01, read-out: DRB1*04:01 binding capacity, WT peptide (IC50 nM)), 2710 nM.

Take `C[C@H](NC(=O)CNC(=O)[C@H](CCCCN)NC(=O)[C@@H]1CCCN1C(=O)CNC(=O)[C@H](CC(=O)O)NC(=O)[C@H](CCCCN)NC(=O)CNC(=O)[C@H](CO)NC(=O)[C@@H]1CCCN1C(=O)CN)C(=O)N[C@@H](CCCNC(N)=O)C(=O)NCC(=O)N[C@@H](CC(=O)O)C(=O)N[C@@H](CO)C(=O)O` [GPSGKDGPKGAXGDS] (H-GPSGKDGPKGA[Cit]GDS-OH; N-terminus and C-terminus assumed): the IC50 on HLA-DRB1*01:01 (setting [1]) and on HLA-DRB1*04:01 (setting [2]) was greater than 40000 nM throughout. Besides, at HLA-DRB1*01:01 (setting [5]), the “DRB1*01:01 binding capacity, WT/cit ratio” value was determined as 1.0. Further, the “DRB1*04:01 binding capacity, WT/cit ratio” value on HLA-DRB1*04:01 (setting [5]) was found to be 1.0.

As for `CC[C@H](C)[C@H](NC(=O)[C@H](CC(C)C)NC(=O)[C@@H](N)CC(C)C)C(=O)N[C@@H](CCC(N)=O)C(=O)NCC(=O)N[C@@H](CO)C(=O)N[C@@H](CC(N)=O)C(=O)N[C@@H](CC(=O)O)C(=O)N[C@H](C(=O)N[C@@H](CCC(=O)O)C(=O)N[C@H](C(=O)N[C@@H](CCCNC(N)=O)C(=O)N[C@@H](C)C(=O)N[C@@H](CCC(=O)O)C(=O)NCC(=O)O)[C@@H](C)CC)C(C)C` [LLIQGSNDVEIXAEG] (H-LLIQGSNDVEI[Cit]AEG-OH), the IC50 on HLA-DRB1*01:01 (citrullinated peptide as listed (X at Cit position), read-out: DRB1*01:01 binding capacity Cit peptide (IC50 nM)) came out at 998 nM; on HLA-DRB1*04:01 (citrullinated peptide as listed (X at Cit position), read-out: DRB1*04:01 binding capacity Cit peptide (IC50 nM)), 8740 nM.

`CC(C)C[C@H](NC(=O)CNC(=O)[C@H](CCCNC(=N)N)NC(=O)[C@H](C)NC(=O)CNC(=O)[C@@H]1CCCN1C(=O)[C@@H](N)CC(C)C)C(=O)N[C@H](C(=O)NCC(=O)N[C@@H](CCCNC(N)=O)C(=O)N1CCC[C@H]1C(=O)NCC(=O)N[C@@H](CC(=O)O)C(=O)N[C@@H](C)C(=O)NCC(=O)O)[C@@H](C)O` [LPGARGLTGXPGDAG] (H-LPGARGLTG[Cit]PGDAG-OH): the IC50 on HLA-DRB1*01:01 (setting [1]) is 18 nM; on HLA-DRB1*04:01 (setting [2]), greater than 40000 nM.

For the compound `CC(C)C[C@H](NC(=O)[C@H](CC(C)C)NC(=O)[C@H](CCCNC(N)=O)NC(=O)[C@@H](NC(=O)CNC(=O)[C@@H]1CCCN1C(=O)[C@@H](NC(=O)[C@H](CO)NC(=O)[C@H](CO)NC(=O)[C@@H](N)CCCNC(=N)N)C(C)C)C(C)C)C(=O)N[C@@H](CCC(N)=O)C(=O)N[C@@H](CC(=O)O)C(=O)N[C@@H](CO)C(=O)N[C@H](C(=O)N[C@@H](CC(=O)O)C(=O)O)C(C)C` [RSSVPGVXLLQDSVD] (H-RSSVPGV[Cit]LLQDSVD-OH), the IC50 at HLA-DRB1*01:01 (setting [3]) was determined as 1310 nM; at HLA-DRB1*04:01 (setting [4]), 8950 nM.

These data come from paper PMC5421785, “Citrullination only infrequently impacts peptide binding to HLA class II MHC” (PLoS ONE, 2017).
